Measured values published in patent US8278359B2, “Compositions containing amines and use thereof to treat acne or reduce the appearance of oil or pores on the skin” (Johnson & Johnson Consumer Companies, Inc., priority 2005, dated 2012).
Where two headings read alike, the source gives them in different places.

Legend:
[1] = test system: IFN (interferon-gamma); test: PHA-stimulated peripheral blood lymphocyte cytokine release: IFN; format: cell-based; conditions: Homo sapiens, read-out: IFN % inh.
From the text: (§1) The ability of various amines to affect the inflammatory responses was illustrated by its ability to reduce the production of cytokines by human lymphocytes stimulated with the T-cell receptor (TCR) activating agent phytohaemagglutinin (PHA) in the following assay.
(§2) Human leukocytes were collected from a healthy adult […] via leukopheresis, and adjusted to a density Of 1×10^6 cells/mL in serum free lymphocyte growth medium (ExVivo-15, Biowhittaker, Walkersville, Md.). PBLs were stimulated with 10 μg/mL PHA in the presence or absence of test samples following published methods (Hamamoto Y., et al. Exp Dermatol 2:231-235, 1993). The following compounds were evaluated N,N,N′,N′-Tetrakis(2-hydroxypropyl)ethylenediamine (THPED, available from BASF under the tradename “Quadrol” or “Neutrol”), N,N,N,N-Tetramethylethylenediamine (TEMED, available from Pfaltz & Bauer Chemicals (Waterbury, Conn.)), and Diethylenetriamine (available from Sigma-Aldrich) Following a 48 hour incubation at 37° C. with 5% CO2, the supernatant was removed and evaluated for cytokine content using commercially available multiplex cytokine detection kit.

[2] = test system: TNF (tissue necrosis factor-alpha); test: PHA-stimulated peripheral blood lymphocyte cytokine release: TNF; format: cell-based; conditions: Homo sapiens, read-out: TNF % inh.
From the text: as §1, §2

[3] = test system: IL-2 (Interleukin-2); test: PHA-stimulated peripheral blood lymphocyte cytokine release: IL-2; format: cell-based; conditions: Homo sapiens, read-out: IL-2 % inh.
From the text: as §1, §2

[4] = test system: GM-CSF (granulocyte macrophage stimulating factor); test: PHA-stimulated peripheral blood lymphocyte cytokine release: GM-CSF; format: cell-based; conditions: Homo sapiens, read-out: GMCSF % inh.
From the text: as §1, §2

[5] = test system: tyrosinase; test: Tyrosinase protein levels in B16 cells (Western blot, normalized to β-Actin); format: cell-based, murine; conditions: 20 μg/ml, PBS treated control = 1
Protocol: THPED was also tested for its ability to induce tyrosinase protein levels in B16 cells. B16 cells were treated with THPED at different concentrations at pH 7.2 for 48 hours and cells were then lysed in 250 μl of PBS containing 1% Triton X-100. B16 cell lysates containing 3.7 μg of protein (for tyrosinase protein analysis) and 1.2 μg of protein (for β-Actin protein analysis) were electrophoresed on 4-20% Tris-Glycine SDS PAGE minigels (Invitrogen, Carlsbad, Calif.), transferred onto PVDF membrane (Bio Rad, Hercules, Calif.), and probed with antibodies for Tyrosinase (1:200 in PBS+0.2% Tween 20+5% BSA, obtained from Santa Cruz Biotechnology, Inc., Santa Cruz, Calif.) and β-Actin (1:2000 in PBS+0.2% Tween 20+5% BSA, obtained from Sigma, St. Louis, Mo.). Protein expression of tyrosinase and β-Actin were analyzed using ECL reagent and Hyperfilm ECL obtained from Amersham (Piscataway, N.J.). The film was developed using a Konica SRX-101A Processor (East Orange, N.J.).
Tyrosinase protein level in untreated B16 cells was normalized to 1.

[6] = test system: tyrosinase; test: Tyrosinase activity in lysates of treated B16 cells (DOPA, absorbance 490 nm); format: cell-based, murine; conditions: 10 μg/ml; B16 cells 48 hours; activity at 3-hours, normalized for total protein
Protocol: THPED was also tested for its ability to induce tyrosinase activity in B16 cells by spectroscopic measuring of the final product, melanin. B16 cells were treated with THPED at different concentrations at pH 7.2 for 48 hours and cells were then lysed in 250 μl of PBS containing 1% Triton X-100 (Sigma, St. Louis, Mo.). The lysates were collected and centrifuged at 14,000 rpm for 5 minutes at 4° C. to pellet any insoluble material. Lysates (100 μl) were transferred to a 96 well assay plate (Corning Costar, San Diego, Calif.) and mixed with 100 μl of 0.1% (w/v) DOPA in PBS. The absorbance at 490 nm was then monitored from 0 to 12 hours using a VersaMax Plate Spectrophotometer (Molecular Devices, Sunnyvale, Calif.) and SoftMax Pro analytical software (Molecular Devices, Sunnyvale, Calif.). The tyrosinase activities were normalized for total protein using the BioRad Dc Protein Assay (Bio Rad, Hercules, Calif.).

[7] = test system: B16 cells; test: Induction of pigmentation in vitro, DOPA staining; format: cell-based, murine; conditions: 10 ug/ml, 48 hours
Protocol: THPED was tested for its effect on pigmentation, using melanocytes, DOPA staining and computerized image analysis. THPED was obtained from BASF (Florham Park, N.J.). THPED was dissolved in culture medium and pH was adjusted to neutral (pH 7.2). THPED was assayed at concentrations ranging from 0.05-0.01%.
B16 cells (a murine melanoma cell line) were obtained from American Type Culture Collection (Manassas, Va.). Cells were cultured in Dulbecco's Modified Eagle Medium (DMEM) containing 10% fetal bovine serum (FBS), 4.5 mg/ml glucose, 2 mM L-glutamine, sodium pyruvate, without phenol red (Invitrogen, Carlsbad, Calif.). B16 cells were plated on 12 well tissue culture plates (Corning Costar, San Diego, Calif.), at 40,000 cells per well in the above culture media. Cells were allowed to grow overnight and then treated with various concentrations of THPED at pH 7.2 for total 48 hours. Fresh media containing the experimental treatments were changed once daily.
At the end of the treatment, the cells were washed for 5 minutes, twice, in phosphate-buffered saline (PBS, from Life Technologies, Gaithersburg, Md.), then briefly fixed in 10% buffered formalin (from Sigma St. Louis, Mo.) for 10 minutes, washed three times with PBS and stained with 0.1% L-3,4-Dihydroxyphenylalanine (DOPA, from Sigma, St. Louis, Mo.) in PBS for 2-3 hours at 37° C., followed by three PBS washes. DOPA is a substrate for tyrosinase; therefore an increase in staining represents increased tyrosinase activity and pigment production. Images of DOPA-stained cells were taken using a Leica DMIL microscope (Bannockburn, Ill.) and an OPTRONICS DEI-750 digital camera (Goleta, Calif.). All images were obtained and analyzed with Image Pro Plus 4.0 software (Media Cybernetics, Silver Spring, Md.).
The pigment change was evaluated using the scale defined in Table XII.

[8] = 10 μg/ml, 10 μg/mL PHA, 48 hour incubation
[9] = 100 μg/ml, 10 μg/mL PHA, 48 hour incubation

| Structure (SMILES) | inhibition at 10 µg/mL [1, 8] [%] | inhibition at 100 µg/mL [1, 9] [%] | inhibition at 10 µg/mL [2, 8] [%] | inhibition at 100 µg/mL [2, 9] [%] | inhibition at 10 µg/mL [3, 8] [%] | inhibition at 100 µg/mL [3, 9] [%] | inhibition at 10 µg/mL [4, 8] [%] | inhibition at 100 µg/mL [4, 9] [%] | inhibition at 10 µg/mL ([1]; 48 h) [%] | inhibition at 100 µg/mL ([1]; 48 h) [%] | inhibition at 10 µg/mL ([2]; 48 h) [%] | inhibition at 100 µg/mL ([2]; 48 h) [%] | inhibition at 10 µg/mL ([3]; 48 h) [%] | inhibition at 100 µg/mL ([3]; 48 h) [%] | inhibition at 10 µg/mL ([4]; 48 h) [%] | inhibition at 100 µg/mL ([4]; 48 h) [%] | Relative increase in tyrosinase protein [5] [fold] | % tyrosinase activity relative to untreated control [6] [%] | Pigmentation score [7] |
| --- | --- | --- | --- | --- | --- | --- | --- | --- | --- | --- | --- | --- | --- | --- | --- | --- | --- | --- | --- |
| NCCNCCN [Diethylenetriamine] | -1.2 | -35 | 9.9 | 3.3 | 4.7 | -19.5 | 36.6 | 51.7 |  |  |  |  |  |  |  |  |  |  |  |
| CC(C)NCCN(CCNC(C)C)CCNC(C)C [Tris[2-(isopropylamino)ethyl]amine, reference compound] | 20.3 | 12.5 | -10.7 | -15.3 | -7.7 | 2.3 | -26.4 | -52.8 |  |  |  |  |  |  |  |  |  |  |  |
| CN(C)CCN(C)C [TEMED, N, N, N′, N′-tetramethylethylene diamine] |  |  |  |  |  |  |  |  | 36.9 | 58.6 | 33.6 | 41.8 | 6.6 | 42.9 | 47.4 | 53.1 |  |  |  |
| OCCN(CCO)CCN(CCO)CCO [THEED, N, N, N′, N′-Tetrakis(2-hydroxyethyl)ethylene diamine] |  |  |  |  |  |  |  |  | 23.7 | 49.5 | 35.8 | 44.5 | 27.7 | 61.8 | 16.6 | 23 |  |  |  |
| C=C[C@@]1(C)CC(=O)[C@]2(O)[C@@]3(C)[C@@H](O)CCC(C)(C)[C@@H]3[C@H](O)[C@H](OC(C)=O)[C@@]2(C)O1 [Forskolin, forskolin, reference compound] |  |  |  |  |  |  |  |  |  |  |  |  |  |  |  |  | 34 | 202.35 | 3 |
